Measurements as given in PubChem BioAssay AID256 (DTP/NCI, 2004).
Where “and” joins values, the source holds several entries; their conditions need not be identical. Equal entries are not always repeated. Toxic doses and inconclusive results are not listed. How the source made its calls: active means survival T/C of 150% or more; inactive means T/C below 125% in these data.

Tested on: CD2F1 mice, L1210 leukemia ip, survival T/C
Assay: NCI In Vivo Anticancer Drug Screen. Data for tumor model L1210 Leukemia (intraperitoneal) in CD2F1 (CDF1) mice
Conditions: endpoint: mean survival time, higher = longer survival
Procedure, shortened: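 Activity against a transplanted murine tumor was judged by comparing the compound group with a vehicle group. The outcome in the treated animals was divided by that in the controls.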

[1] = dose: 6.25 mg/kg/injection, schedule: Q04DX003 (ip), vehicle: saline
[2] = dose: 12.5 mg/kg/injection, schedule: Q04DX003 (ip), vehicle: saline with Tween-80
[3] = dose: 12.5 mg/kg/injection, schedule: Q04DX003 (ip), vehicle: saline
[4] = dose: 25.0 mg/kg/injection, schedule: Q04DX003 (ip), vehicle: saline with Tween-80
[5] = dose: 25.0 mg/kg/injection, schedule: Q04DX003 (ip), vehicle: saline
[6] = dose: 50.0 mg/kg/injection, schedule: Q01DX001 (ip), vehicle: saline
[7] = dose: 50.0 mg/kg/injection, schedule: Q04DX003 (ip), vehicle: saline
[8] = dose: 100.0 mg/kg/injection, schedule: Q01DX001 (ip), vehicle: saline
[9] = dose: 100.0 mg/kg/injection, schedule: Q04DX003 (ip), vehicle: saline with Tween-80
[10] = dose: 100.0 mg/kg/injection, schedule: Q04DX003 (ip), vehicle: saline
[11] = dose: 100.0 mg/kg/injection, schedule: Q01DX009 (ip), vehicle: saline with Tween-80
[12] = dose: 200.0 mg/kg/injection, schedule: Q01DX009 (ip), vehicle: saline with Tween-80
[13] = dose: 400.0 mg/kg/injection, schedule: Q01DX009 (ip), vehicle: saline with Tween-80
[14] = dose: 75.0 mg/kg/injection, schedule: Q01DX001 (ip), vehicle: other
[15] = dose: 200.0 mg/kg/injection, schedule: Q04DX003 (ip), vehicle: saline with Tween-80
[16] = dose: 400.0 mg/kg/injection, schedule: Q04DX003 (ip), vehicle: saline with Tween-80
[17] = dose: 50.0 mg/kg/injection, schedule: Q01DX009 (ip), vehicle: Klucel (hydroxypropylcellulose) (HPC)
[18] = dose: 100.0 mg/kg/injection, schedule: Q01DX009 (ip), vehicle: Klucel (hydroxypropylcellulose) (HPC)
[19] = dose: 200.0 mg/kg/injection, schedule: Q01DX001 (ip), vehicle: saline with Tween-80
[20] = dose: 400.0 mg/kg/injection, schedule: Q01DX001 (ip), vehicle: saline with Tween-80

Measured: T/C

C[N+]1(C)CCC(OC(=O)C(O)(c2ccccc2)C2CCCC2)C1 (stereo not given)
inactive: dose: 3.13 mg/kg/injection, schedule: Q04DX003 (ip), vehicle: saline 87 % of control | [1] 98 % of control | [2] 100 % of control | [3] 90 % of control | dose: 25.0 mg/kg/injection, schedule: Q01DX001 (ip), vehicle: saline 104 % of control | [4] 94 % of control | [5] 103 % of control | [6] 106 % of control | dose: 50.0 mg/kg/injection, schedule: Q04DX003 (ip), vehicle: saline with Tween-80 103 % of control | [7] 95 % of control | [8] 102 % of control and 105 % of control | dose: 100.0 mg/kg/injection, schedule: Q04DX002 (ip), vehicle: saline 97 % of control | [9] 108 % of control | [10] 113 % of control and 88 % of control | dose: 200.0 mg/kg/injection, schedule: Q04DX002 (ip), vehicle: saline 112 % of control | dose: 400.0 mg/kg/injection, schedule: Q04DX002 (ip), vehicle: saline 104 % of control

O=c1[nH]cnc2c1ncn2C1OC(CO)C(O)C1O (stereo not given)
inactive: [6] 100 % of control | [8] 100 % of control | dose: 200.0 mg/kg/injection, schedule: Q01DX001 (ip), vehicle: saline 97 % of control | dose: 400.0 mg/kg/injection, schedule: Q01DX001 (ip), vehicle: saline 100 % of control

CCOC(=O)[C@]1(Br)CC[C@@]1(Br)C(=O)OCC
inactive: dose: 12.5 mg/kg/injection, schedule: Q01DX009 (ip), vehicle: saline with Tween-80 96 % of control | dose: 25.0 mg/kg/injection, schedule: Q01DX009 (ip), vehicle: saline with Tween-80 95 % of control and 96 % of control | dose: 50.0 mg/kg/injection, schedule: Q01DX009 (ip), vehicle: saline with Tween-80 92 % of control and 96 % of control | [11] 93 % of control and 101 % of control | [12] 100 % of control and 101 % of control | [13] 98 % of control and 106 % of control

Cc1ccc2[nH]c(=O)[nH]c(=O)c2n1
inactive: [14] 98 % of control | dose: 150.0 mg/kg/injection, schedule: Q01DX001 (ip), vehicle: other 98 % of control

COc1ccc(C(=Cc2cc(OC(C)=O)c3ccccc3c2OC(C)=O)c2ccc(OC)cc2)cc1
inactive: [9] 97 % of control | [15] 89 % of control | [16] 91 % of control

C1=C[N]2c3c4c(ccc3=C1)=CC=C[N]4[Ga]2[c]1ccccc1
inactive: [9] 118 % of control

O=c1c2ccccc2nnn1OCc1ccccc1
inactive: dose: 12.5 mg/kg/injection, schedule: Q01DX001 (ip), vehicle: distilled water + Tween-80 104 % of control | dose: 25.0 mg/kg/injection, schedule: Q01DX001 (ip), vehicle: distilled water + Tween-80 90 % of control | dose: 50.0 mg/kg/injection, schedule: Q01DX001 (ip), vehicle: distilled water + Tween-80 92 % of control | dose: 100.0 mg/kg/injection, schedule: Q01DX001 (ip), vehicle: distilled water + Tween-80 90 % of control | dose: 200.0 mg/kg/injection, schedule: Q01DX001 (ip), vehicle: distilled water + Tween-80 88 % of control

NC(=S)N/N=C/c1ccc(Cl)cn1
inactive: dose: 4.89 mg/kg/injection, schedule: Q01DX009 (ip), vehicle: saline with Tween-80 120 % of control | dose: 6.25 mg/kg/injection, schedule: Q04DX002 (ip), vehicle: saline with Tween-80 100 % of control | dose: 12.5 mg/kg/injection, schedule: Q04DX002 (ip), vehicle: saline with Tween-80 104 % of control and 108 % of control

CC1CN(CCC#N)C(=O)S1(=O)=O (stereo not given)
inactive: [14] 108 % of control

CCOC(=O)C(C(C)=O)C(C)=O
inactive: [9] 102 % of control | [15] 94 % of control | [16] 94 % of control

CCOC(=S)SSC(=S)OCC
inactive: dose: 100.0 mg/kg/injection, schedule: Q01DX001 (ip), vehicle: Klucel (hydroxypropylcellulose) (HPC) 92 % of control | dose: 200.0 mg/kg/injection, schedule: Q01DX001 (ip), vehicle: Klucel (hydroxypropylcellulose) (HPC) 114 % of control

O=[N+]([O-])c1cccc(S(=O)(=O)SC(Cl)(Cl)Cl)c1
inactive: [1] 102 % of control | [3] 97 % of control | [5] 102 % of control

c1ccc2c(c1)Cc1cc3ccccc3nc1-2
inactive: dose: 75.0 mg/kg/injection, schedule: Q01DX001 (ip), vehicle: saline 102 % of control | dose: 150.0 mg/kg/injection, schedule: Q01DX001 (ip), vehicle: saline 97 % of control | dose: 300.0 mg/kg/injection, schedule: Q01DX001 (ip), vehicle: saline 101 % of control

Cc1nc(N)[nH]c(=O)c1[N+](=O)[O-]
inactive: dose: 100.0 mg/kg/injection, schedule: Q04DX003 (ip), vehicle: other 108 % of control | dose: 200.0 mg/kg/injection, schedule: Q04DX003 (ip), vehicle: other 113 % of control

O=P(O)(c1ccccc1Br)c1ccccc1Br
inactive: [7] 101 % of control | [10] 97 % of control | dose: 200.0 mg/kg/injection, schedule: Q04DX003 (ip), vehicle: saline 94 % of control

Cc1ccc(C(C)(C)C[P+](C)(c2ccccc2)c2ccccc2)cc1
inactive: [17] 100 % of control | [18] 102 % of control

CN(C)c1ccc(N=Nc2ccc(C(=O)Cl)cc2)cc1
inactive: [17] 98 % of control | [18] 91 % of control | dose: 200.0 mg/kg/injection, schedule: Q01DX009 (ip), vehicle: Klucel (hydroxypropylcellulose) (HPC) 94 % of control

O=S(=O)(N/N=C/c1ccncc1)c1ccccc1
inactive: dose: 12.5 mg/kg/injection, schedule: Q04DX003 (ip), vehicle: water 98 % of control | dose: 25.0 mg/kg/injection, schedule: Q04DX003 (ip), vehicle: water 98 % of control | dose: 50.0 mg/kg/injection, schedule: Q04DX003 (ip), vehicle: water 104 % of control | dose: 100.0 mg/kg/injection, schedule: Q04DX003 (ip), vehicle: water 106 % of control | dose: 200.0 mg/kg/injection, schedule: Q04DX003 (ip), vehicle: water 112 % of control | dose: 400.0 mg/kg/injection, schedule: Q04DX003 (ip), vehicle: water 108 % of control

CC(=O)/C(N=O)=C(/C)O
inactive: [19] 88 % of control | [20] 92 % of control

COc1cccc2c1C(=O)OC2=O
inactive: dose: 12.5 mg/kg/injection, schedule: Q01DX005 (ip), vehicle: Klucel (hydroxypropylcellulose) (HPC) 101 % of control | dose: 25.0 mg/kg/injection, schedule: Q01DX005 (ip), vehicle: Klucel (hydroxypropylcellulose) (HPC) 101 % of control | dose: 50.0 mg/kg/injection, schedule: Q01DX005 (ip), vehicle: Klucel (hydroxypropylcellulose) (HPC) 95 % of control | dose: 100.0 mg/kg/injection, schedule: Q01DX005 (ip), vehicle: Klucel (hydroxypropylcellulose) (HPC) 94 % of control | dose: 200.0 mg/kg/injection, schedule: Q01DX005 (ip), vehicle: Klucel (hydroxypropylcellulose) (HPC) 95 % of control

O=C1C=C(Cl)C(=O)N1c1cccc(Cl)c1
inactive: dose: 6.25 mg/kg/injection, schedule: Q04DX003 (ip), vehicle: saline with Tween-80 104 % of control | [2] 95 % of control | [4] 95 % of control

S=C(Nc1ccc(Cl)cc1)Nc1ccc(Cl)cc1 (tested in a mixture with another compound)
inactive: [11] 92 % of control | [9] 91 % of control | [12] 97 % of control | [15] 88 % of control | [13] 90 % of control | [16] 93 % of control

O=C1CSC(=S)N1
inactive: [11] 89 % of control | [9] 105 % of control | [12] 97 % of control | [15] 92 % of control | [16] 94 % of control

N#CCCOS(=O)(=O)c1ccc(N)c([N+](=O)[O-])c1
inactive: dose: 100.0 mg/kg/injection, schedule: Q01DX001 (ip), vehicle: saline with Tween-80 103 % of control | [11] 93 % of control | [19] 100 % of control | [12] 96 % of control | [20] 102 % of control | [13] 96 % of control
